Results reported in paper PMC4521635 (Clinical cancer research : an official journal of the …, 2011).
Entries after “also recorded” stand apart in the source; their conditions may differ. Read-outs that look alike come from different tables or passages of the source.

Columns and labels:
[1] = clinical; assay type: in vivo, human
[2] = cited from earlier work
[3] = 4-day continuous infusion with cyclophosphamide and carboplatin; cited from earlier work
[4] = median, dose level 7, daily dose 21.3 mg/m^2 for 3 days, day 8, phase I patients
[5] = with paclitaxel and carboplatin
[6] = Expanded MTD cohort, TIME + HCT
[7] = TIME regimen with autologous HCT
[8] = dose level 1, topotecan 10 mg/m^2, TIME + HCT
[9] = dose level 2, topotecan 15 mg/m^2, TIME + HCT
[10] = dose level 3, topotecan 20 mg/m^2, TIME + HCT
[11] = dose level 4, topotecan 27 mg/m^2, TIME + HCT
[12] = dose level 5, topotecan 36 mg/m^2, TIME + HCT
[13] = dose level 6, topotecan 48 mg/m^2, TIME + HCT
[14] = dose level 7, topotecan 64 mg/m^2, TIME + HCT
[15] = dose level 8, topotecan 85 mg/m^2, TIME + HCT

CC[C@@]1(O)C(=O)OCc2c1cc1n(c2=O)Cc2cc3c(CN(C)C)c(O)ccc3nc2-1 [topotecan]
AUC, Lactone ([1]; human, in vivo, 3.3 mg/m2): 0.26 µM·h | AUC, Total ([1]; human, in vivo, 3.3 mg/m2): 0.56 µM·h | Cl, Lactone ([1]; human, in vivo, 3.3 mg/m2): 27.95 L/h/m^2 | Cl, Total ([1]; human, in vivo, 3.3 mg/m2): 12.97 L/h/m^2 | Cmax ([1]; human, in vivo, 3.3 mg/m2): 180 nM | Cmax, Total ([1]; human, in vivo, 3.3 mg/m2): 180 nM | T1/2, Lactone ([1]; human, in vivo, 3.3 mg/m2): 2.6 h | T1/2, Total ([1]; human, in vivo, 3.3 mg/m2): 2.7 h | Vdss, Lactone ([1]; human, in vivo, 3.3 mg/m2): 56.6 L/m^2 | Vdss, Total ([1]; human, in vivo, 3.3 mg/m2): 49.2 L/m^2 | AUC ([1]; human, in vivo, 5 mg/m2): 0.27 µM·h | Cl, Lactone ([1]; human, in vivo, 5 mg/m2): 41.19 L/h/m^2 | Cl, Total ([1]; human, in vivo, 5 mg/m2): 15.44 L/h/m^2 | Cmax ([1]; human, in vivo, 5 mg/m2): 200 nM | T1/2, Total ([1]; human, in vivo, 5 mg/m2): 3.0 h | half-life ([1]; human, in vivo, 5 mg/m2): 2.7 h | AUC ([1]; human, in vivo, 6.8 mg/m2): 0.38 µM·h | AUC, Total ([1]; human, in vivo, 6.8 mg/m2): 0.86 µM·h | Cl, Lactone ([1]; human, in vivo, 6.8 mg/m2): 39.59 L/h/m^2 | Cl, Total ([1]; human, in vivo, 6.8 mg/m2): 17.14 L/h/m^2 | Cmax ([1]; human, in vivo, 6.8 mg/m2): 230 nM | Cmax, Total ([1]; human, in vivo, 6.8 mg/m2): 330 nM | T1/2, Total ([1]; human, in vivo, 6.8 mg/m2): 2.6 h | Vdss, Lactone ([1]; human, in vivo, 6.8 mg/m2): 113 L/m^2 | Vdss, Total ([1]; human, in vivo, 6.8 mg/m2): 57.5 L/m^2 | half-life ([1]; human, in vivo, 6.8 mg/m2): 3.4 h | AUC, Lactone ([1]; human, in vivo, 8.9 mg/m2): 0.70 µM·h | AUC, Total ([1]; human, in vivo, 8.9 mg/m2): 1.63 µM·h | Cl, Lactone ([1]; human, in vivo, 8.9 mg/m2): 28.1 L/h/m^2 | Cl, Total ([1]; human, in vivo, 8.9 mg/m2): 12.05 L/h/m^2 | Cmax ([1]; human, in vivo, 8.9 mg/m2): 480 nM | Cmax, Total ([1]; human, in vivo, 8.9 mg/m2): 520 nM | T1/2, Lactone ([1]; human, in vivo, 8.9 mg/m2): 3.1 h | Vdss, Lactone ([1]; human, in vivo, 8.9 mg/m2): 91.6 L/m^2 | Vdss, Total ([1]; human, in vivo, 8.9 mg/m2): 53.7 L/m^2 | AUC, Lactone ([1]; human, in vivo, 12 mg/m2): 0.88 µM·h | AUC, Total ([1]; human, in vivo, 12 mg/m2): 1.86 µM·h | Cl, Lactone ([1]; human, in vivo, 12 mg/m2): 30.11 L/h/m^2 | Cl, Total ([1]; human, in vivo, 12 mg/m2): 16.43 L/h/m^2 | Cmax ([1]; human, in vivo, 12 mg/m2): 610 nM | Cmax, Total ([1]; human, in vivo, 12 mg/m2): 650 nM | T1/2, Lactone ([1]; human, in vivo, 12 mg/m2): 3.2 h | T1/2, Total ([1]; human, in vivo, 12 mg/m2): 2.9 h | Vdss, Lactone ([1]; human, in vivo, 12 mg/m2): 94.4 L/m^2 | Vdss, Total ([1]; human, in vivo, 12 mg/m2): 53.3 L/m^2 | AUC, Lactone ([1]; human, in vivo, 15.7 mg/m2): 1.48 µM·h | AUC, Total ([1]; human, in vivo, 15.7 mg/m2): 2.77 µM·h | Cl, Lactone ([1]; human, in vivo, 15.7 mg/m2): 23.53 L/h/m^2 | Cl, Total ([1]; human, in vivo, 15.7 mg/m2): 12.62 L/h/m^2 | Cmax ([1]; human, in vivo, 15.7 mg/m2): 800 nM | Cmax, Total ([1]; human, in vivo, 15.7 mg/m2): 870 nM | T1/2, Lactone ([1]; human, in vivo, 15.7 mg/m2): 3.3 h | T1/2, Total ([1]; human, in vivo, 15.7 mg/m2): 3.1 h | Vdss, Lactone ([1]; human, in vivo, 15.7 mg/m2): 76.6 L/m^2 | Vdss, Total ([1]; human, in vivo, 15.7 mg/m2): 48.1 L/m^2 | T1/2, Lactone ([1]; human, in vivo, 21.3 mg/m2): 2.7 h | T1/2, Total ([1]; human, in vivo, 21.3 mg/m2): 2.6 h | AUC, Lactone ([1]; human, in vivo, 28.4 mg/m2): 2.40 µM·h | AUC, Total ([1]; human, in vivo, 28.4 mg/m2): 5.73 µM·h | Cl, Lactone ([1]; human, in vivo, 28.4 mg/m2): 25.77 L/h/m^2 | Cl, Total ([1]; human, in vivo, 28.4 mg/m2): 10.78 L/h/m^2 | Cmax ([1]; human, in vivo, 28.4 mg/m2): 1670 nM | Cmax, Total ([1]; human, in vivo, 28.4 mg/m2): 2120 nM | T1/2, Total ([1]; human, in vivo, 28.4 mg/m2): 2.4 h | Vdss, Lactone ([1]; human, in vivo, 28.4 mg/m2): 81.5 L/m^2 | Vdss, Total ([1]; human, in vivo, 28.4 mg/m2): 41.1 L/m^2 | Cl, Lactone [1, 4]: 29.10 L/h/m^2 | Cl, Total [1, 4]: 13.43 L/h/m^2 | Vdss, Lactone [1, 4]: 95.8 L/m^2 | Vdss, Total [1, 4]: 63.9 L/m^2 | dose-limiting toxicity ([2]; seen at 6 mg/m^2/d, with cyclophosphamide and carboplatin): severe stomatitis requiring parenteral nutrition and narcotic administration | MTD ([2]; single agent, 72-hour continuous infusion, largest dose 11 mg/m^2): not reached | dose-limiting toxicity ([2]; single-agent topotecan with hematopoietic cell support): diarrhea | dose-limiting toxicities [2, 5]: hemorrhagic stomatitis and prolonged hematopoietic recovery | topotecan dose at which 4 cycles could be given [2, 5]: 10 mg/m^2 | median topotecan clearance [3]: 184 mL/min/m^2 | MTD of topotecan (daily dose) (3 days, in combination with ifosfamide, mesna, etoposide, followed by autologous HCT): 21.3 mg/m^2/d | Nonrelapse deaths, cause [6]: Arrhythmia (1) and bacterial sepsis (1) | Nonrelapse deaths, number of patients [6]: 2 (13%) | dose-limiting toxicity [7]: Mucositis; also recorded: gastrointestinal toxicity | recommended phase II dose [7]: 64 mg/m^2 | Cortical function, number of patients with grade 3 or 4 [8]: 0 | Enteritis, number of patients with grade 3 or 4 [8]: 0 | Hematuria, number of patients with grade 3 or 4 [8]: 0 | Mucositis (grade 4), number of patients [8]: 1 (25%) | Nonrelapse deaths, number of patients [8]: 0 | Number of days with grade 4 mucositis, median (range) [8]: 0 (0-1) days | Peripheral nerve function, number of patients with grade 3 or 4 [8]: 0 | Pulmonary clinical status, number of patients with grade 3 or 4 [8]: 1 (25%) | Reduction in ejection fraction, number of patients with grade 3 or 4 [8]: 0 | Cortical function, number of patients with grade 3 or 4 [9]: 1 (17%) | Enteritis, number of patients with grade 3 or 4 [9]: 1 (17%) | Hematuria, number of patients with grade 3 or 4 [9]: 1 (17%) | Mucositis (grade 4), number of patients [9]: 2 (33%) | Nonrelapse deaths, number of patients [9]: 0 | Number of days with grade 4 mucositis, median (range) [9]: 0 (0-10) days | Peripheral nerve function, number of patients with grade 3 or 4 [9]: 1 (17%) | Pulmonary clinical status, number of patients with grade 3 or 4 [9]: 1 (17%) | Reduction in ejection fraction, number of patients with grade 3 or 4 [9]: 0 | Cortical function, number of patients with grade 3 or 4 [10]: 0 | Enteritis, number of patients with grade 3 or 4 [10]: 3 (75%) | Hematuria, number of patients with grade 3 or 4 [10]: 1 (25%) | Mucositis (grade 4), number of patients [10]: 2 (50%) | Nonrelapse deaths, number of patients [10]: 0 | Number of days with grade 4 mucositis, median (range) [10]: 2.5 (0-6) days | Peripheral nerve function, number of patients with grade 3 or 4 [10]: 0 | Pulmonary clinical status, number of patients with grade 3 or 4 [10]: 0 | Reduction in ejection fraction, number of patients with grade 3 or 4 [10]: 0 | Cortical function, number of patients with grade 3 or 4 [11]: 1 (20%) | Enteritis, number of patients with grade 3 or 4 [11]: 3 (60%) | Hematuria, number of patients with grade 3 or 4 [11]: 0 | Mucositis (grade 4), number of patients [11]: 4 (80%) | Nonrelapse deaths, number of patients [11]: 0 | Number of days with grade 4 mucositis, median (range) [11]: 2 (0-7) days | Peripheral nerve function, number of patients with grade 3 or 4 [11]: 0 | Pulmonary clinical status, number of patients with grade 3 or 4 [11]: 1 (20%) | Reduction in ejection fraction, number of patients with grade 3 or 4 [11]: 1 (20%) | Cortical function, number of patients with grade 3 or 4 [12]: 1 (11 %) | Enteritis, number of patients with grade 3 or 4 [12]: 4 (44%) | Hematuria, number of patients with grade 3 or 4 [12]: 0 | Mucositis (grade 4), number of patients [12]: 5 (56%) | Nonrelapse deaths, number of patients [12]: 0 | Number of days with grade 4 mucositis, median (range) [12]: 1 (0-20) days | Peripheral nerve function, number of patients with grade 3 or 4 [12]: 0 | Pulmonary clinical status, number of patients with grade 3 or 4 [12]: 0 | Reduction in ejection fraction, number of patients with grade 3 or 4 [12]: 0 | Cortical function, number of patients with grade 3 or 4 [13]: 0 | Enteritis, number of patients with grade 3 or 4 [13]: 2 (40%) | Hematuria, number of patients with grade 3 or 4 [13]: 0 | Mucositis (grade 4), number of patients [13]: 5 (100%) | Nonrelapse deaths, number of patients [13]: 0 | Number of days with grade 4 mucositis, median (range) [13]: 5 (1-9) days | Peripheral nerve function, number of patients with grade 3 or 4 [13]: 0 | Pulmonary clinical status, number of patients with grade 3 or 4 [13]: 0 | Reduction in ejection fraction, number of patients with grade 3 or 4 [13]: 0 | Cortical function, number of patients with grade 3 or 4 [14]: 0 | Enteritis, number of patients with grade 3 or 4 [14]: 4 (57%) | Hematuria, number of patients with grade 3 or 4 [14]: 1 (14%) | Mucositis (grade 4), number of patients [14]: 7 (100%) | Nonrelapse deaths, cause [14]: Fungal infection | Nonrelapse deaths, number of patients [14]: 1 (14%) | Number of days with grade 4 mucositis, median (range) [14]: 6 (4-11) days | Peripheral nerve function, number of patients with grade 3 or 4 [14]: 1 (14%) | Pulmonary clinical status, number of patients with grade 3 or 4 [14]: 0 | Reduction in ejection fraction, number of patients with grade 3 or 4 [14]: 0 | Cortical function, number of patients with grade 3 or 4 [15]: 0 | Enteritis, number of patients with grade 3 or 4 [15]: 3 (60%) | Hematuria, number of patients with grade 3 or 4 [15]: 1 (20%) | Mucositis (grade 4), number of patients [15]: 4 (80%) | Nonrelapse deaths, cause [15]: Septic shock | Nonrelapse deaths, number of patients [15]: 1 (20%) | Number of days with grade 4 mucositis, median (range) [15]: 8 (0-12) days | Peripheral nerve function, number of patients with grade 3 or 4 [15]: 0 | Pulmonary clinical status, number of patients with grade 3 or 4 [15]: 0 | Reduction in ejection fraction, number of patients with grade 3 or 4 [15]: 1 (20%)
